Key:
[1] = system: HO-1 (Heme-Oxygenase-1); experiment: Immunostaining of HO-1 in human skin explants, image analysis; type: cell-based
Procedure: 59 human skin explants of an average diameter of 14 mm (±1 mm) were prepared on an abdoplasty coming from a person. The explants were kept in survival in BEM culture medium at 37° C. in a humid, 5%-CO2 atmosphere.
The tested products were topically applied on the basis of 2 μl per cm^2 and spread using a small spatula twice a day (morning and evening) on day 0, 1, 2, 3 and 4.
On D4, the explants of the batches ML and PML were placed on the 3D grid with 900 μl of HBSS and placed into the PolluBox® system.
3 mL of the solution <<ML>> (supplemented with 150 μl/ml of NaCl 0.9%) were exposed by vaporization for 1 hour and half, as shown in the figure below.
Heme-Oxygenase is a phase II skin anti-oxidant enzyme which generates cell anti-oxidant molecules. […] The immunostaining was performed using an automated slide processing system (Autostainer, Dako) and assessed by microscopical observation. […]
The images analyses were performed on all the images (9 to 12 images) of each batch using the CellD storing software (Olympus Microscopy, Matrix Optics (M)SdnBhd, Taman Mayhang, Maylasia). For each batch of explants, the percentage of the region of interest covered by the staining (stained surface percentage) was determined by image analysis. […]
Analyzed batches: T, P2, ML, P2ML (4 batches, 3 explants/batch, so 12 explants at day 5 referred to as TJ5, P2J5, MLJ5, P2MLJ5.

[2] = system: human living skin explant; experiment: TUNEL assay (UV-induced DNA damage) on human living skin explants; type: cell-based; conditions: UV irradiated
Procedure: human skin explants of an average diameter of 12 mm (±1 mm) were prepared on an abdoplasty coming from a person). The explants were kept in survival in BEM culture medium at 37° C. in a humid, 5%-CO2 atmosphere.
On day 0 (D0), day 1, day 2 and day 3 (3 hours before irradiation), the tested products were applied topically on surface of skin explants at the rate of 2 mg/cm^2, twice a day for D1 and D2 and once on DO and D3. […] The medium was half renewed (1 ml per well) on day 2.
On D3, the culture media of all the batches was replaced by HBSS solution (Hank's Balanced Saline Solution; 1 ml per explant). The batches “UV” were irradiated by UVA+ UVB using a UV simulator Vibert Lourmat RMX 3W with a dose of 18 J/cm2 of UVA (4 MED, minimal erythemal dose) and 0.3 J/cm2 of UVB (2 MED). The unirradiated batches were kept in HBSS in the dark. At the end of the irradiation the explants were put back in 2 mL of BEM medium.
After fixation for 24 hours in buffered formalin, the samples were dehydrated and impregnated in paraffin using a Leica PEARL dehydration automat. The samples were embedded using a Leica EG 1160 embedding station. 5-μm-thick sections were made using a Leica RM 2125 Minot-type microtome, and the sections were mounted on Superfrost® histological glass slides. The frozen samples were cut into 7-μm-thick sections using a Leica CM 3050 cryostat. Sections were then mounted on Superfrost® plus silanized glass slides. The microscopical observations were realized using a Leica DMLB or Olympus BX43 microscope. Pictures were digitized with a numeric DP72 Olympus camera with CellD storing software.
DNA oxidization is a type of damage that can be promoted by reactive oxygen species (ROS), generated by UV exposure. […] The staining was assessed by microscopical observation. Batches analyzed were T, TUV, P1UV, P2UV, P3UV at day 4 also referred to as TJ4, TUVJ4, P1UVJ4, P2UVJ4, P3UVJ4 (T=Control batch non treated non irradiated; TJ4=T at Day 4 (D4); TUV: control batch non treated UV irradiated; TUVJ4=[…] at Day 4; P1J4: product A 4% non irradiated at D4; P2J4: product A 2% non irradiated at D4; P3J4: product A 1% non irradiated at D4; P1UV: product A 4% UV irradiated; P1UVJ4: product A 4% UV irradiated at D4 P2UV: product A 2% UV irradiated; P2UVJ4: product A 2% UV irradiated at D4; P3UV: product A 1% UV irradiated; P3UVJ4: product A 1% UV irradiated at D4

O=C(O)[C@@H]1CCCN1 [Combination P4, L-Proline]
effect on pollutant-induced HO-1 ([1]; after pollutants exposure): strongly reduced the effect of the pollutants
effect on HO-1 expression ([1]; without pollutants, D5): does not seem to affect the HO-1 expression
activity against UV-induced DNA damage [2]: strong inhibition of the increase of DNA damage

Source: patent publication US20210369583A1, “COMPOSITIONS FOR PROVIDING SKIN CARE BENEFITS AND METHODS OF USE” (Danisco US Inc., priority 2018, published 2021)
